Experimental data from patent publication US20230143612A1 (Arbutus Biopharma Corporation, priority 2020, published 2023).

These molecules were tested against PD-L1 His protein / PD-1 Fc protein (Homo sapiens, UniProt Q9NZQ7) (assay: HTRF Assay (PD-1/PD-L1 interaction)). Conditions: PD-L1 His 6 nM, PD-1 Fc 6 nM.
Format: binding
Method in brief: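 HTRF: PD-L1 His (6 nM final), compound (3-fold dilutions, 20 μM to 0.001 μM final) and PD-1 Fc (6 nM final) preincubated 15 min at room temperature. Anti-human IgG-XL665 and anti-6HIS Tb cryptate (mixed at 6.7 nM and 0.35 nM) then added for 1 h at room temperature before reading.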

Sequence of PD-L1 His protein / PD-1 Fc protein (Q9NZQ7 19-238 limits assumed): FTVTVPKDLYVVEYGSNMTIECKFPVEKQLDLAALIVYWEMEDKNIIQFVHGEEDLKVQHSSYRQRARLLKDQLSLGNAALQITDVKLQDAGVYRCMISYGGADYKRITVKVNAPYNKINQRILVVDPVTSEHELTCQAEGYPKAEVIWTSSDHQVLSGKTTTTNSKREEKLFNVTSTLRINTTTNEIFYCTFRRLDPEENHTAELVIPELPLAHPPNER

In order of rising IC50:
1. COc1nc(-c2cccc(-c3cccc(-c4ccn5c(=O)c(CN[C@@H](C)C(N)=O)cnc5c4)c3Cl)c2Cl)ccc1CNC[C@@H]1CCC(=O)N1 [Example 260, (2S)-2-[[8-[2-Chloro-3-[2-chloro-3-[6-methoxy-5-[[[(2S)-5-oxopyrrolidin-2-yl]methylamino]methyl]-2-pyridyl]phenyl]phenyl]-4-oxo-pyrido[1,2-a]pyrimidin-3-yl]methylamino]propenamide]  0.1 nM
2. COc1nc(-c2cccc(-c3cccc(-c4ccn5c(=O)c(CN6CCNC(=O)CC6)cnc5c4)c3Cl)c2Cl)ccc1CNC[C@@H]1CCC(=O)N1 [Example 327, (S)-8-(2,2′-Dichloro-3′-(6-methoxy-5-((((5-oxopyrrolidin-2-yl)methyl)-amino)methyl)-pyridin-2-yl)-[1,1′-biphenyl]-3-yl)-3-((5-oxo-1,4-diazepan-1-yl)methyl)-4H-pyrido[1,2-a]pyrimidin-4-one]  0.1 nM
3. COc1nc(-c2cccc(-c3cccc(N4Cc5cc(CNC[C@@H]6CCC(=O)N6)ccc5C4=O)c3Cl)c2Cl)ccc1CNC[C@@H]1CCC(=O)N1 [Example 387, 2-(2,2′-Dichloro-3′-(6-methoxy-5-(((((S)-5-oxopyrrolidin-2-yl)methyl)amino)methyl)pyridin-2-yl)-[1,1′-biphenyl]-3-yl)-5-(((((S)-5-oxopyrrolidin-2-yl)methyl)amino)methyl)isoindolin-1-one]  0.1 nM
4. COc1nc(-c2cccc(-c3cccc(-c4ccn5c(=O)c(CN6CCC[C@H](C(=O)O)C6)cnc5c4)c3Cl)c2Cl)ccc1CNC[C@@H]1CCC(=O)N1 [Example 130, (S)-1-((8-(2,2′-Dichloro-3′-(6-methoxy-5-(((((S)-5-oxopyrrolidin-2-yl)methyl)amino)methyl)pyridin-2-yl)-[1,1′-biphenyl]-3-yl)-4-oxo-4H-pyrido[1,2-a]pyrimidin-3-yl)methyl)piperidine-3-carboxylic acid]  0.3 nM
5. COc1nc(-c2cccc(-c3cccc(-c4ccn5c(=O)c(CN[C@@H](CO)C(=O)O)cnc5c4)c3Cl)c2Cl)ccc1CNC[C@@H]1CCC(=O)N1 [Example 151, ((8-(2,2′-Dichloro-3′-(6-methoxy-5-(((((S)-5-oxopyrrolidin-2-yl)methyl)amino)methyl)pyridin-2-yl)-[1,1′-biphenyl]-3-yl)-4-oxo-4H-pyrido[1,2-a]pyrimidin-3-yl)methyl)-L-serine]  0.3 nM
6. COc1nc(-c2cccc(-c3cccc(-c4ccn5c(=O)c(CNC[C@@H]6CCC(=O)N6)cnc5c4)c3Cl)c2Cl)ccc1CN1CC[C@@H](O)C1 [Example 170, 8-(2,2′-Dichloro-3′-(5-(((R)-3-hydroxypyrrolidin-1-yl)methyl)-6-methoxypyridin-2-yl)-[1,1′-biphenyl]-3-yl)-3-(((((S)-5-oxopyrrolidin-2-yl)methyl)amino)methyl)-4H-pyrido[1,2-a]pyrimidin-4-one]  0.3 nM
7. COc1nc(-c2cccc(-c3cccc(-c4ccn5c(=O)c(CNCCN6CCNC6=O)cnc5c4)c3Cl)c2Cl)ccc1CNC[C@@H]1CCC(=O)N1 [Example 207, (S)-8-(2,2′-Dichloro-3′-(6-methoxy-5-((((5-oxopyrrolidin-2-yl)methyl)amino)methyl)pyridin-2-yl)-[1,1′-biphenyl]-3-yl)-3-(((2-(2-oxoimidazolidin-1-yl)ethyl)amino)methyl)-4H-pyrido[1,2-a]pyrimidin-4-one]  0.3 nM
8. Cc1c(COc2cc(OCc3cncc(C#N)c3)c(CNC[C@H]3CCC(=O)N3)cc2Cl)cccc1-c1cccc(-c2ccn3c(=O)c(CNC[C@H]4CCC(=O)N4)ccc3c2)c1C [Example 28, 5-((4-Chloro-5-((2,2′-dimethyl-3′-(4-oxo-3-(((((R)-5-oxopyrrolidin-2-yl)methyl)amino)methyl)-4H-quinolizin-8-yl)-[1,1′-biphenyl]-3-yl)methoxy)-2-(((((R)-5-oxopyrrolidin-2-yl)methyl)amino)methyl)phenoxy)methyl)nicotinonitrile]  0.7 nM
9. COc1nc(-c2cccc(-c3cccc(-c4ccc5nc(CNC[C@H](C)O)cn5n4)c3Cl)c2Cl)ccc1CNC[C@@H]1CCC(=O)N1 [Example 354, (5S)-5-[[[6-[2-Chloro-3-[2-chloro-3-[2-[[[(2S)-2-hydroxypropyl]amino]methyl]imidazo[1,2-b]pyridazin-6-yl]phenyl]phenyl]-2-methoxy-3-pyridyl]methylamino]methyl]pyrrolidin-2-one]  0.8 nM
10. Cc1c(COc2cc(OCc3cncc(C#N)c3)c(CN3CC(C(=O)O)C3)cc2Cl)cccc1-c1cccc(-c2ccn3c(=O)c(CN4CC(C(=O)O)C4)ccc3c2)c1C [Example 29, 1-((8-(3′-((4-((3-Carboxyazetidin-1-yl)methyl)-2-chloro-5-((5-cyanopyridin-3-yl)methoxy)phenoxy)methyl)-2,2′-dimethyl-[1,1′-biphenyl]-3-yl)-4-oxo-4H-quinolizin-3-yl)methyl)azetidine-3-carboxylic acid]  0.9 nM
11. COc1nc(-c2cccc(-c3cccc(-c4ccc5c(n4)c(Cl)c(CNC[C@@H]4CCC(=O)N4)n5C)c3Cl)c2Cl)ccc1CNC[C@@H]1CCC(=O)N1 [Example 366, (S)-5-((((3-Chloro-5-(2,2′-dichloro-3′-(6-methoxy-5-(((((S)-5-oxopyrrolidin-2-yl)methyl)-amino)methyl)-pyridin-2-yl)-[1,1′-biphenyl]-3-yl)-1-methyl-1H-pyrrolo[3,2-b]pyridin-2-yl)methyl)amino)-methyl)-pyrrolidin-2-one]  1.5 nM
12. COc1nc(-c2cccc(-c3cccc(-c4ccn5c(=O)c(CN6CC[C@H](O)C6)cnc5c4)c3Cl)c2Cl)ccc1CNC[C@@H]1CCC(=O)N1 [Example 144, 8-(2,2′-Dichloro-3′-(6-methoxy-5-(((((S)-5-oxopyrrolidin-2-yl)methyl)amino)methyl)pyridin-2-yl)-[1,1′-biphenyl]-3-yl)-3-(((S)-3-hydroxypyrrolidin-1-yl)methyl)-4H-pyrido[1,2-a]pyrimidin-4-one]  3.1 nM
13. Cc1c(-c2ccn3c(=O)c(CNC[C@@H]4CCC(=O)N4)cnc3c2)cccc1-c1cccc(-c2ccc(CNC[C@@H]3CCC(=O)N3)c(F)n2)c1Cl [Example 57, 8-(2′-Chloro-3′-(6-fluoro-5-(((((S)-5-oxopyrrolidin-2-yl)methyl)amino)methyl)pyridin-2-yl)-2-methyl-[1,1′-biphenyl]-3-yl)-3-(((((S)-5-oxopyrrolidin-2-yl)methyl)amino)methyl)-4H-pyrido[1,2-a]pyrimidin-4-one]  3.1 nM
14. COc1cc(-c2cccc(-c3cccc(-c4ccn5c(=O)c(CNC[C@@H]6CCC(=O)N6)cnc5c4)c3C)c2Cl)ccc1CNC[C@@H]1CCC(=O)N1 [Example 66, 8-(2′-Chloro-3″-methoxy-2-methyl-4″-(((((S)-5-oxopyrrolidin-2-yl)methyl)amino)methyl)-[1,1′:3′,1″-terphenyl]-3-yl)-3-(((((S)-5-oxopyrrolidin-2-yl)methyl)amino)methyl)-4H-pyrido[1,2-a]pyrimidin-4-one]  5.2 nM
15. COc1nc(-c2cccc(-c3cccc(-c4ccn5c(=O)c(CN6CC7(CNC(=O)C7)C6)cnc5c4)c3Cl)c2Cl)ccc1CN1CC2(CNC(=O)C2)C1 [Example 70, 8-(2,2′-Dichloro-3′-(6-methoxy-5-((7-oxo-2,6-diazaspiro[3.4]octan-2-yl)methyl)pyridin-2-yl)-[1,1′-biphenyl]-3-yl)-3-((7-oxo-2,6-diazaspiro[3.4]octan-2-yl)methyl)-4H-pyrido[1,2-a]pyrimidin-4-one]  7.1 nM
16. Cc1c(-c2ccn3c(=O)c(CNC[C@@H]4CCC(=O)N4)cnc3c2)cccc1-c1cccc(-c2ccc3c(n2)N(C)CCC3NC[C@@H]2CCC(=O)N2)c1Cl (mixture of isomers) [Example 68, 8-(2′-Chloro-2-methyl-3′-(8-methyl-5-((((S)-5-oxopyrrolidin-2-yl)methyl)amino)-5,6,7,8-tetrahydro-1,8-naphthyridin-2-yl)-[1,1′-biphenyl]-3-yl)-3-(((((S)-5-oxopyrrolidin-2-yl)methyl)amino)methyl)-4H-pyrido[1,2-a]pyrimidin-4-one]  11 nM
17. COc1nc(-c2cccc(-c3cccc(-c4ccn5c(=O)c(CNC[C@H](C)N)cnc5c4)c3Cl)c2Cl)ccc1CNC[C@@H]1CCC(=O)N1 [Example 298, 3-[[[(2S)-2-Aminopropyl]amino]methyl]-8-[2-chloro-3-[2-chloro-3-[6-methoxy-5-[[[(2S)-5-oxopyrrolidin-2-yl]methylamino]methyl]-2-pyridyl]phenyl]phenyl]pyrido[1,2-a]pyrimidin-4-one]  25 nM
18. COc1nc(-c2cccc(-c3cccc(-c4ccc5nc(C(=O)NCCc6c[nH]cn6)cn5n4)c3Cl)c2Cl)ccc1CNC[C@@H]1CCC(=O)N1 [Example 440, 6-[2-Chloro-3-[2-chloro-3-[6-methoxy-5-[[[(2S)-5-oxopyrrolidin-2-yl]methylamino]methyl]-2-pyridyl]phenyl]phenyl]-N-[2-(1H-imidazol-4-yl)ethyl]imidazo[1,2-b]pyridazine-2-carboxamide]  27 nM
19. COc1nc(-c2cccc(-c3cccc(-c4ccn5c(=O)c(CN[C@H]6C[C@](C)(O)C6)cnc5c4)c3Cl)c2Cl)cc(Cl)c1CNC[C@@H]1CCC(=O)N1 [Example 393, 8-(2,2′-Dichloro-3′-(4-chloro-6-methoxy-5-(((((S)-5-oxopyrrolidin-2-yl)methyl)amino)methyl)pyridin-2-yl)-[1,1′-biphenyl]-3-yl)-3-((((1r,3r)-3-hydroxy-3-methylcyclobutyl)amino)methyl)-4H-pyrido[1,2-a]pyrimidin-4-one]  62 nM
20. COc1nc(-c2cccc(-c3cccc(-c4cc(F)c5c(c4)CCN(CCNC[C@@H]4CCC(=O)N4)C5=O)c3Cl)c2Cl)ccc1CNC[C@@H]1CCC(=O)N1 [Example 400, 6-(2,2′-Dichloro-3′-(6-methoxy-5-(((((S)-5-oxopyrrolidin-2-yl)methyl)amino)methyl)pyridin-2-yl)-[1,1′-biphenyl]-3-yl)-8-fluoro-2-(2-((((S)-5-oxopyrrolidin-2-yl)methyl)amino)ethyl)-3,4-dihydroisoquinolin-1(2H)-one]  550 nM
